From patent US20200179269A1, “VAPORIZABLE COMPOSITIONS COMPRISING CANNABINOL” (KANABO RESEARCH LTD., priority 2017, published 2020)

System: Loss of Righting Reflex (LORR) in mice
Experiment: Sleep induction model in mice: Loss of Righting Reflex (LORR) after Pentobarbital, sleep latency and sleep duration
Type: in vivo, mice BALB/c
Design: Sleep latency median / Sleep latency (mean) / Sleep duration median / Sleep duration (mean): unit not given here
From the text: The objective of the present study is to evaluate various cannabinoid mixtures with terpenes in the sleep induction model in mice and then in the second part optimize the doses.
Study Variables and End Points • Mortality and morbidity—once a day. • Body weight—during acclimation and before dosing. • Behavioral test—righting reflex—sleep latency and duration
The principle of the study is based on the ability of sleep promoting agents to shorten the time until Loss of Righting Reflex (LORR) occurs and prolong the presence of LORR in rodents treated with established anesthetizing agent.
Mice were be utilized and divided into 62 groups of three in each group.
Combinations of 3 different cannabinoids: CBN, CBD and THC and 2 terpenes: (β-myrcene and linalool were tested. Diazepam (2 mg/kg) was used as a positive control. Ethanol:Cremophor:Saline (1:1:18) was used as negative control. The items were dissolved in Ethanol:Cremophor:Saline. The items, positive and negative controls were IP injected. Three (or four) mice were used for each group. 5 cycles of experiments were performed. In Cycles 1 each cannabinoid at different concentrations was separately administered; in Cycle 2—combinations of the cannabinoids with different concentration were administered (4 mice per group were used for items), in Cycle 3—different terpenes at different concentration were administered, in Cycle 4—combinations of different cannabinoids and terpenes were administered and in Cycle 5—compositions with high content of cannabinoids and low content of terpenes were tested (4 mice per group).
Female mice BALB/c strain of 7 weeks age were used for the experiment. The mice were allowed to acclimatize for at least 5 days. Animals were fed ad libitum a commercial rodent diet (Teklad Certified Global 18% Protein Diet, Harlan cat #2018). Animals had free access to sterilized and acidified drinking water (pH between 2.5 and 3.5) obtained from the municipality supply. Animals were housed under standard laboratory conditions, air conditioned and filtered (HEPA F6/6) with adequate fresh air supply (Minimum 15 air changes/hour). Animals were kept in a climate controlled environment. Temperatures range were 18-24° C. and relative humidity range 30-70% with a 12 hours light and 12 hours dark cycle (6 AM/6 PM).
The duration of the study was one day per cycle. The study was conducted in five cycles (see Tables 10-15). Each Test Item or vehicle formulation was administrated to three (or four) animals per group. Morbidity and mortality was checked once a day.
Sleeping Test was performed according to Pharmaseed's SOP No. 130: “Loss of Righting Reflex”. Mice were injected intraperitoneally (IP) with the positive control Diazepam (2 mg/kg, IP), vehicle or with the Test Items 30 minutes prior to Pentobarbital (40 mg/kg, IP) administration. Observation of the mouse begun immediately after administration of Pentobarbital. Once the mouse was asleep (the loss of righting reflex—LORR), it was be transferred to a home cage and placed on its back. Mice was considered awake when they could successfully upright themselves (all four feet in contact with the surface). Once a mouse righted itself, it was placed on its back once again and allowed to right a second time for confirmation. Expected sleep onset and duration of the negative control group was 5-8 min and 20-25 min, respectively. For positive control expected sleep onset and duration were 3-4 min and 40-50 min, respectively.
While the animals were asleep, fatty ophthalmic ointment (e.g. Duratears®) was be applied to their eyes to avoid drying of the eye. Also, since Diazepam might cause hypothermia, the cages with the sleeping mice were be placed on a heating pad.
The following parameters were be recorded and served as an index of sleep behavior: • Sleep latency—time required to sleep induction. • Sleep duration.
At termination, the animals were sacrificed by CO2 asphyxiation.

[1] = Cycle 4, group 43F, Diazepam 2 mg/kg
[2] = Cycle 1, high doses (above 5 mg/kg)

C=C(C)[C@@H]1CCC(C)=C[C@H]1c1c(O)cc(CCCCC)cc1O [CBD, cannabidiol]
effect on sleeping (Cycle 1, 1 mg/kg dose): assisted in sleeping
Sleep duration (mean) (Cycle 1, dose 1 mg/kg IP): (14)
Sleep duration median (Cycle 1, dose 1 mg/kg IP): 9
Sleep latency (mean) (Cycle 1, dose 1 mg/kg IP): (13)
Sleep latency median (Cycle 1, dose 1 mg/kg IP): 16
Sleep duration (mean) (Cycle 1, dose 5 mg/kg IP): (49)
Sleep duration median (Cycle 1, dose 5 mg/kg IP): 49
Sleep latency (mean) (Cycle 1, dose 5 mg/kg IP): (6)
Sleep latency median (Cycle 1, dose 5 mg/kg IP): 6
Sleep duration (mean) (Cycle 1, dose 20 mg/kg IP): (48)
Sleep duration median (Cycle 1, dose 20 mg/kg IP): 48
Sleep latency (mean) (Cycle 1, dose 20 mg/kg IP): (8)
Sleep latency median (Cycle 1, dose 20 mg/kg IP): 9
Sleep duration (mean) (Cycle 1, dose 50 mg/kg IP): (84)
Sleep duration median (Cycle 1, dose 50 mg/kg IP): 68
Sleep latency (mean) (Cycle 1, dose 50 mg/kg IP): (6)
Sleep latency median (Cycle 1, dose 50 mg/kg IP): 6

CCCCCc1cc(O)c2c(c1)OC(C)(C)c1ccc(C)cc1-2 [CBN, 6,6,9-trimethyl-3-pentylbenzo[c]chromen-1-ol]
dose response for duration of sleep parameter (Cycle 1): moderate dose response
Sleep duration (mean) (Cycle 1, dose 0.1 mg/kg IP): (26)
Sleep duration median (Cycle 1, dose 0.1 mg/kg IP): 34
Sleep latency (mean) (Cycle 1, dose 0.1 mg/kg IP): (5)
Sleep latency median (Cycle 1, dose 0.1 mg/kg IP): 4
Sleep duration (mean) (Cycle 1, dose 0.5 mg/kg IP): (14)
Sleep duration median (Cycle 1, dose 0.5 mg/kg IP): 15
Sleep latency (mean) (Cycle 1, dose 0.5 mg/kg IP): (8)
Sleep latency median (Cycle 1, dose 0.5 mg/kg IP): 8
Sleep duration (mean) (Cycle 1, dose 2 mg/kg IP): (23)
Sleep duration median (Cycle 1, dose 2 mg/kg IP): 25
Sleep latency (mean) (Cycle 1, dose 2 mg/kg IP): (6)
Sleep latency median (Cycle 1, dose 2 mg/kg IP): 6
Sleep duration (mean) (Cycle 1, dose 5 mg/kg IP): (31)
Sleep duration median (Cycle 1, dose 5 mg/kg IP): 32
Sleep latency (mean) (Cycle 1, dose 5 mg/kg IP): (9)
Sleep latency median (Cycle 1, dose 5 mg/kg IP): 8

CN1C(=O)CN=C(c2ccccc2)c2cc(Cl)ccc21 [Diazepam, reference compound]
state of the mice after awakening (Cycle 1): remained dizzy for a prolonged period of time
Sleep duration (mean) (Cycle 1, dose 2 mg/kg IP): (94)
Sleep duration median (Cycle 1, dose 2 mg/kg IP): 94
Sleep latency (mean) (Cycle 1, dose 2 mg/kg IP): (3)
Sleep latency median (Cycle 1, dose 2 mg/kg IP): 2
Sleep duration (mean) (Cycle 2, dose 2 mg/kg IP): (51.7)
Sleep duration median (Cycle 2, dose 2 mg/kg IP): 56
Sleep latency (mean) (Cycle 2, dose 2 mg/kg IP): (4.3)
Sleep latency median (Cycle 2, dose 2 mg/kg IP): 4
Sleep duration (mean) (Cycle 3, Dose 2, IP): (66.3)
Sleep duration median (Cycle 3, Dose 2, IP): 60
Sleep latency (mean) (Cycle 3, Dose 2, IP): (2.3)
Sleep latency median (Cycle 3, Dose 2, IP): 2
Sleep duration (mean) [1]: (76)
Sleep duration median [1]: 69
Sleep latency (mean) [1]: (3.3)
Sleep latency median [1]: 3

C=CC(C)(O)CCC=C(C)C (stereo not shown) [Linalool, linalool]
Sleep duration (mean) (Cycle 3, Dose 20, IP): (5.3)
Sleep duration median (Cycle 3, Dose 20, IP): 6
Sleep latency (mean) (Cycle 3, Dose 20, IP): (5)
Sleep latency median (Cycle 3, Dose 20, IP): 5
Sleep duration (mean) (Cycle 3, Dose 100, IP): (5.3)
Sleep duration median (Cycle 3, Dose 100, IP): 6
Sleep latency (mean) (Cycle 3, Dose 100, IP): (5.5)
Sleep latency median (Cycle 3, Dose 100, IP): 5
Sleep duration (mean) (Cycle 3, Dose 300, IP): (97.3)
Sleep duration median (Cycle 3, Dose 300, IP): 120
Sleep latency (mean) (Cycle 3, Dose 300, IP): (2)
Sleep latency median (Cycle 3, Dose 300, IP): 2
dose response of the terpene in combination with CBN and CBD (Cycle 4): evident dose response
Sleep duration (mean) (Cycle 5, dose 10 mg/kg IP): (6)
Sleep duration median (Cycle 5, dose 10 mg/kg IP): 6.5
Sleep latency (mean) (Cycle 5, dose 10 mg/kg IP): (8)
Sleep latency median (Cycle 5, dose 10 mg/kg IP): 8

C=CC(=C)CCC=C(C)C [Myrcene, β-myrcene]
Sleep duration (mean) (Cycle 3, Dose 20, IP): (8.7)
Sleep duration median (Cycle 3, Dose 20, IP): 9
Sleep latency (mean) (Cycle 3, Dose 20, IP): (4.7)
Sleep latency median (Cycle 3, Dose 20, IP): 5
Sleep duration (mean) (Cycle 3, Dose 100, IP): (7.3)
Sleep duration median (Cycle 3, Dose 100, IP): 7
Sleep latency (mean) (Cycle 3, Dose 100, IP): (5)
Sleep latency median (Cycle 3, Dose 100, IP): 5
Sleep duration (mean) (Cycle 3, Dose 300, IP): (61.3)
Sleep duration median (Cycle 3, Dose 300, IP): 31
Sleep latency (mean) (Cycle 3, Dose 300, IP): (3)
Sleep latency median (Cycle 3, Dose 300, IP): 3
dose response of the terpene in combination with CBN and CBD (Cycle 4): evident dose response
Sleep duration (mean) (Cycle 5, dose 10 mg/kg IP): (5)
Sleep duration median (Cycle 5, dose 10 mg/kg IP): 5
Sleep latency (mean) (Cycle 5, dose 10 mg/kg IP): (5)
Sleep latency median (Cycle 5, dose 10 mg/kg IP): 5

CCCCCc1cc(O)c2c(c1)OC(C)(C)[C@@H]1CCC(C)=C[C@@H]21 [THC, tetrahydrocannabinol]
state of the mice after awakening (Cycle 1): much more vivid after awakening
Sleep duration (mean) (Cycle 1, dose 0.5 mg/kg IP): (6)
Sleep duration median (Cycle 1, dose 0.5 mg/kg IP): 8
Sleep latency (mean) (Cycle 1, dose 0.5 mg/kg IP): (4)
Sleep latency median (Cycle 1, dose 0.5 mg/kg IP): 4
Sleep duration (mean) (Cycle 1, dose 2 mg/kg IP): (12)
Sleep duration median (Cycle 1, dose 2 mg/kg IP): 0
Sleep latency (mean) (Cycle 1, dose 2 mg/kg IP): (20)
Sleep latency median (Cycle 1, dose 2 mg/kg IP): 20
Sleep duration (mean) (Cycle 1, dose 5 mg/kg IP): (10)
Sleep duration median (Cycle 1, dose 5 mg/kg IP): 9
Sleep latency (mean) (Cycle 1, dose 5 mg/kg IP): (25)
Sleep latency median (Cycle 1, dose 5 mg/kg IP): 24
Sleep duration (mean) (Cycle 1, dose 10 mg/kg IP): (21)
Sleep duration median (Cycle 1, dose 10 mg/kg IP): 11
Sleep latency (mean) (Cycle 1, dose 10 mg/kg IP): (11)
Sleep latency median (Cycle 1, dose 10 mg/kg IP): 11
effect on sleep duration [2]: decreases the sleep duration
effect on sleep latency (time required for falling asleep) [2]: increases the sleep latency
effect on onset of sleep (Cycle 1, medium concentrations (2-5 mg/kg)): increases the onset of sleep
effect of addition to the combination of CBN, CBD and terpene (Cycle 4, 0.5 mg/kg): reduced the observed effect
